In article PMC4099323, “Inhibition of Catalase by Tea Catechins in Free and Cellular State: A Biophysical Approach” (PLoS ONE, 2014):

Key:
DNA methyltransferase = conditions: KYSE 510 human esophageal cancer cells; cited from earlier work
[1] = system: phosphorylation of JNK, JUN, MEK1, MEK2; conditions: JB6 epidermal cell lines, 5–20 µM; cited from earlier work
Bcl-2 proteins = conditions: read-out: inhibition constant (K i); cited from earlier work
vimentin = conditions: read-out: dissociation constant (K d); cited from earlier work
[2] = target: T1, Catalase (from bovine liver) (Bos taurus, UniProt P00432); test: Circular dichroism: catechin-induced conformational change in catalase; conditions: catalase 1 µM, ligands 3 µM each, 25°C
T1 construct: Catalase (from bovine liver); purchased Sigma-Aldrich, St. Louis, MO, USA; host or cells: bovine liver
T1 sequence (P00432 2-527 limits assumed): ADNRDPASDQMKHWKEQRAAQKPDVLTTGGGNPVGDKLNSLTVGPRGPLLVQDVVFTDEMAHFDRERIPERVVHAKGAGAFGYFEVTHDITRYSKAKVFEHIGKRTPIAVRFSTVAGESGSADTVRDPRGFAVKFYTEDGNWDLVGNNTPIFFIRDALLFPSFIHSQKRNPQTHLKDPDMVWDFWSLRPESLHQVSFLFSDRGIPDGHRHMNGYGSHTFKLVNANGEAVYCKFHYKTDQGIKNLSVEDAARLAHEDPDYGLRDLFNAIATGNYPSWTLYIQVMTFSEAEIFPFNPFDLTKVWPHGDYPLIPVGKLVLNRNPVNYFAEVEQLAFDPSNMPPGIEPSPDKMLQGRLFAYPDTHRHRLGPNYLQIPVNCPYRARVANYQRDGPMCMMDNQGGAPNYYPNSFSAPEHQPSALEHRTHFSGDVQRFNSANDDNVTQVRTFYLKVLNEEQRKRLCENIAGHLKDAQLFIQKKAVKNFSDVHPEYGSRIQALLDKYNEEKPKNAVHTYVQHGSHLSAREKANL
Description: All the CD experiments were carried out on a Jasco-815 automatic spectropolarimeter (Jasco International Co., Ltd. Hachioji, Japan) equipped with a peltier cuvette holder and temperature controller PFD425 L/15. The catalase concentration and path length of the cuvette used were 1 µM and 0.1 cm, respectively. The instrument parameters were set at scanning speed of 50 nm/min, bandwidth of 1.0 nm and sensitivity of 100 milli degree. The molar ellipticity values are expressed in terms of mean residue molar ellipticity, in units of deg. cm^2 dmol^−1.
CD allows investigation of the conformational changes that occur in a protein upon ligand binding. The CD spectra of catalase at pH 7.4 in the absence and in the presence of EGC, EC, ECG, EGCG, and 3-AT at 25°C are represented in Figure 5 (a – f). […] The negative band at 208 and 220 nm decreased in intensity with the addition of various catechins, which is indicative of the loss of α-helicity upon interaction. […] From the CD spectra, the effect of catechins on the secondary structure of catalase is in the following order: 3-AT>EGCG>ECG>EC>EGC.

[3] = target: T1, Catalase (from bovine liver); test: Fluorimetric titration: quenching of catalase fluorescence by catechins; format: binding
Description: Fluorescence spectra were recorded using a Perkin Elmer fluorescence spectrophotometer (LS-55) equipped with 150 W Xenon flash lamp and using fluorescence-free quartz cell of 1 cm path length. The widths of excitation and emission slits were set to 5 nm, and scan speed (100 nm/min), excitation voltage were kept constant for each data set. Quantitative analysis of the potential interaction between catechins and catalase was performed by the fluorimetric titration technique. Briefly, solution of catalase (5×10^−7 M, as calculated using molar extinction coefficient of 3.24×10^5 M^−1 s^−1 at 405 nm for catalase) in 50 mM phosphate buffer of pH 7.4 was titrated in cuvette by successive additions of individual catechin solution aliquots from a stock of 5×10^−7 M. Fluorescence emission spectra were recorded in the wavelength range of 290–450 nm upon excitation at 280 nm when catalase samples were titrated with catechins. All experiments were carried out at room temperature. Fluorescence intensity was measured at 340 nm of protein emission spectra. Fluorescence spectra of individual catechins in buffer were recorded as blanks under the same experimental conditions and subtracted from the corresponding sample to correct the fluorescence background.
The binding constants and the number of binding sites involved were calculated according to the relation: log (F0–F)/F = log K+n log [Q], where K is the binding constant and n is the number of binding sites, F0 is the fluorescence intensity of free catalase, F is the consecutive fluorescence on addition of catechins, and [Q] is the concentration of the quencher (here catechins). A plot of log (F0– F)/F and log [Q] was used to determine the values of K and n from the intercept and the slope respectively (Figure 3 A–D).

[4] = target: human dihydrofolate reductase (DHFR); set-up: method as in PMID 20054477; conditions: fluorescence quenching; cited from earlier work
G3BP1 = conditions: read-out: dissociation constant (K d); cited from earlier work
CDK4 = conditions: MCF7 breast cancer cell lines, 30 µM; cited from earlier work

For `O=C(O[C@@H]1Cc2c(O)cc(O)cc2O[C@@H]1c1cc(O)c(O)c(O)c1)c1cc(O)c(O)c(O)c1` [EGCG, (−)-epigallocatechin gallate], the Ki (DNA methyltransferase) is given as 7000 nM, the “inhibition of phosphorylation of JNK, JUN, MEK1, MEK2” value [1] is given as “inhibited” and the Ki (Bcl-2 proteins) is given as 330 to 490 nM. For the same molecule, the Kd (vimentin) was 3.3 nM, the “order of effect on the secondary structure of catalase (loss of α-helicity)” value [2] was 3-AT>EGCG>ECG>EC>EGC and the “number of binding sites n” value ([3]; double logarithmic plot, 25°C) was “single binding site”. For the same molecule, the “binding constant K with catalase (fluorimetric)” value ([3]; double logarithmic plot, 25°C, pH 7.4, λex 280 nm) was 2.27e+06 M⁻¹, the Kd ([3]; from the fluorimetric binding constant, read-out: K d to catalase) was 440 nM and the Kd [4] was 900 nM. The Kd (G3BP1) was 400 nM and the “inhibition of CDK4” value (CDK4) was “inhibited”.
